| Compound | logP |
| --- | --- |
| Cc1ccccc1C(=O)c1ccc2n1CCC2C(=O)O (stereo unspecified) | 2.9 |
| CCN(CC)C(C)CCCC(=O)Nc1c(C)cccc1C (stereo unspecified) | 2.64 |
| CCN(CC)CCCCCC(=O)Nc1c(C)cccc1C | 2.95 |
| O=c1[nH]c2ccccc2cc1-c1ccccc1 | 2.99 |
| Cc1cnc(NS(=O)(=O)c2ccc(N)cc2)nc1 | 0.34 |
| COC(=O)c1nc(NCC(O)CO)cnc1[N+](=O)[O-] (stereo unspecified) | -0.1 |
| COc1ccccc1N1CCN(CCCNc2cc(=O)n(C)c(=O)n2C)CC1 | 1.6 |
| CCCCC/C=C\C/C=C\C/C=C\C/C=C\CCCC(=O)O | 6.98 |
| CCCn1c(=O)[nH]c(=O)c2[nH]cnc21 | 0.33 |
| COC(C)(OC)c1ccc(C(O)(Cn2ccnc2)c2ccc(-c3ccncc3)cc2)cc1 (stereo unspecified) | 3.45 |
| Cc1cccc(C(=O)c2ccc3n2CCC3C(=O)O)c1 (stereo unspecified) | 3.23 |
| COc1ccc(CC(C)N)cc1OC (stereo unspecified) | 1.2 |
| c1ccc(-c2cn[nH]n2)cc1 | 1.91 |
| CCOC(=O)C(C(=O)OC(C)C)=C1SCCS1 | 2.9 |
| C=C1C(=O)OC2C1C(OC(=O)C(C)=CC)CC(O)(CCl)C1C(OC(C)=O)C=C(C)C21O (stereo unspecified) | 1.42 |
| C=C(C)C(=O)OCC(F)(F)F | 1.56 |
| CCC(CC)C(=O)O | 1.68 |
| O=c1ccn([C@H]2CC[C@@H](CO)O2)c(=O)[nH]1 | -1 |
| CNC(=O)NS(=O)(=O)c1ccc(Cl)cc1 | 1.16 |
| Cc1cccc(N=C2NCCN2)c1Cl | 1.83 |
| CCN1CC(C(O)C(CC2CCCCC2)NC(=O)C(Cc2cnc[nH]2)NC(=O)C(Cc2ccc(OC)cc2)NC(=O)N2CC(O)C(O)C2)OC1=O (stereo unspecified) | 1.22 |
| COc1ccc(COc2ccccc2C(N)=O)cc1 | 1.63 |

| Compound | logP |
| --- | --- |
| c1ccc2c(c1)ccc1cc3c(ccc4ccccc43)cc12 | 6.75 |
| CCCCOC(=O)c1cc(=O)[nH]c(=O)[nH]1 | 1.06 |
| CCCCCC1Nc2cc(C(F)(F)F)c(S(N)(=O)=O)cc2S(=O)(=O)N1 (stereo unspecified) | 2.66 |
| CCN(CC)CCCC(=O)Nc1c(C)cccc1C | 2.06 |
| Cc1nc(Cl)c(C#N)cc1-c1ccccc1 | 3.24 |
| CCC1OC(=O)C(C)C(OC2CC(C)(OC)C(OC=O)C(C)O2)C(C)C(OC2OC(C)CC(N(C)C)C2O)C(C)(O)CC(C)C(=O)C(C)C(O)C1C (stereo unspecified) | 3.05 |
| COc1cc(C)c(/C=C/C(C)=C/C=C/C(C)=C/C(=O)O)c(C)c1C | 6.4 |
| Cc1cc(Br)cc(C(=O)NC2CC2)c1O | 3.8 |
| CCC(C(=O)OCc1ccc(Cl)cc1)C(COC(=O)c1ccccc1)Cc1cncn1C (stereo unspecified) | 4.9 |
| CCCCCCCCCCCCCC(=O)O | 6.11 |
| OCC1c2ccccc2-c2ccccc21 | 2.89 |
| COc1ccc(C2C(=O)c3ccccc3C2=O)cc1 | 2.88 |
| CCNCc1ccccc1 | 1.82 |
| CCC1(c2ccccc2)C(=O)NC(=O)N=C1OC(C)C (stereo unspecified) | 2.22 |
| CCOCCNCC(O)COc1ccc(-c2ncc(-c3cccs3)[nH]2)cc1 (stereo unspecified) | 2.25 |
| NC1CC1c1ccccc1 (stereo unspecified) | 1.58 |
| CC1(C)CC(=O)CC(C)(C)N1O | 0.12 |
| CSC(C)=NOC(=O)N(C)SN(C(=O)N(C)C)C1CC1 | 2 |
| OCc1ccc(C(O)(Cn2ccnc2)c2ccc(-c3ccncc3)cc2)cc1 (stereo unspecified) | 2.4 |
| CCN1CC(C(O)C(CC2CCCCC2)NC(=O)C(Cc2cnc[nH]2)NC(=O)C(CC(=O)N(C)CCOC)Cc2ccccc2)OC1=O (stereo unspecified) | 2.45 |
| Cc1coc2ccc3ccc(=O)oc3c12 | 2.38 |
| CCC(=O)OC(C(=O)NC12CC3CC(CC(C3)C1)C2)c1ccccc1 (stereo unspecified) | 3.72 |

| Compound | logP |
| --- | --- |
| O=C(O)CCC(=O)c1ccccc1 | 1.3 |
| CCC1OC(=O)C(C)C(OC2CC(C)(OC)C(O)C(C)O2)C(C)C(OC2OC(C)CC(N(C)C)C2O)C(C)(O)CC(C)C(=O)C(C)C(OC(C)=O)C1(C)O (stereo unspecified) | 2.85 |
| CC1CCC2C(C)C(OC(=O)Oc3ccccc3)OC3OC4(C)CCC1C32OO4 (stereo unspecified) | 4.41 |
| CCCCCCCCCCCCCc1ccc(O)cc1 | 8.2 |
| Cc1ccc(S(=O)(=O)NC(=O)NN2CCCCCC2)cc1 | 2.69 |
| Nc1c([N+](=O)[O-])ccc2ncccc12 | 1.61 |
| CCCCCCC(C)(C)c1cc(O)c2c(c1)OC(C)(C)C1CC=C(C)CC21 (stereo unspecified) | 9.96 |
| CN(C)c1ccc(C(O)(Cn2ccnc2)c2ccc(-c3ccncc3)cc2)cc1 (stereo unspecified) | 3.29 |
| O=[N+]([O-])c1nccn1CCN1CCOCC1 | -0.1 |
| Nc1ccc(O)c2ncccc12 | -0.11 |
| CCCCCCCCC(=O)O | 3.42 |
| O=C(OOC(=O)c1ccccc1)c1ccccc1 | 3.46 |
| COCC(O)Cn1cc(Br)nc1[N+](=O)[O-] (stereo unspecified) | 0.46 |
| C#CC1(O)C(F)CC2C3CCc4cc(O)ccc4C3CCC21C (stereo unspecified) | 3.3 |
| CC1CC2C3CC(F)C4=CC(=O)C(Cl)=CC4(C)C3(Cl)C(O)CC2(C)C1(O)C(=O)COC(=O)C(C)(C)C (stereo unspecified) | 4.73 |
| Oc1ccc2c(c1)CCCC2 | 2.9 |
| CC(C)(C)c1cccc(O)c1 | 3.3 |
| Cc1cccc(C)c1NC(=O)CCCN | 0.71 |
| CCOC(=O)CNC(=O)CNC(=O)CNC(=O)CCCCSc1ncnc2nc[nH]c12 | 0.21 |
| C=C(C)C(=O)OCC(C)(O)COc1cccc2ccccc12 (stereo unspecified) | 3.77 |
| Oc1cccc2c1CCCC2 | 2.95 |
| CC1=C(C(=O)Nc2ccccc2)S(=O)CCO1 (stereo unspecified) | 0.64 |

Reference: the OPERA property sets (Mansouri et al. 2018)
